Experimental data as given in patent US11787847B2, “Method of identifying malodor modulating compounds” (FIRMENICH SA, priority 2017, dated 2023).

Columns and labels:
[1] = test system: cells that do not express the odorant receptors (HEK293T); assay: Mock transfection control experiment (Example 5); type: cell-based
Method: (§1) Functional dose-response experiments were performed to evaluate the level of DMTS activity of the modified cell line expressing individual putative DMTS receptors. Using a cell-based assay, mouse receptor Olfr1193, Olfr1093, Olfr1097, Olrf166, Olfr169, Olfr738 and Olfr742, and human receptor OR4S2 and OR52N5 were tested in an HEK293T cell line wherein the endogenous RTP1 gene has been activated and the odorant receptor chaperone protein was expressed (described in WO2016/201153). The mouse receptor genes were tagged with a Lucy-FLAG®-Rho tag combination and the human receptors were tagged with a Rho-FLAG® tag combination resulting in a tag:receptor fusion protein for the cell based assay. Receptor genes were co-transfected with the canonical olfactory human G-protein alpha subunit Golf gene and were exposed to increasing concentrations of the malodor odorant. Co-expression of the human Golf activates the Gs transduction pathway that leads to an internal cAMP increase upon binding to the appropriate ligand. Odorant-induced activity was detected by measuring the cAMP increase in the cytosol using an Homogeneous Time Resolved Fluorescence (HTRF) based kit (CisBio, cAMP dynamic 2 kit, cat. 62AM4PEJ). […]

[2] = test system: mouse receptors Olfr1193, Olfr1093, Olfr1097, Olfr166, Olfr169, Olfr738, Olfr742 and human odorant receptor OR4S2; assay: cAMP HTRF dose-response assay, DMTS/DMDS response profiles (Example 5); type: cell-based; conditions: increasing concentration of compound; relative to butyric acid control
Method: as §1

mouse receptor Olfr166 = target: T1, mouse receptor Olfr166 (Mus musculus, UniProt Q0VEL6); assay: cell-based dose-response, cAMP increase by HTRF, HEK293T cells (endogenous RTP1 activated) co-transfected with human Golf, Lucy-FLAG-Rho tagged receptor; conditions: FIG. 5, Example 5, SEQ ID NO: 8
T1 construct: cAMP HTRF
T1 sequence (Q0VEL6 1-312): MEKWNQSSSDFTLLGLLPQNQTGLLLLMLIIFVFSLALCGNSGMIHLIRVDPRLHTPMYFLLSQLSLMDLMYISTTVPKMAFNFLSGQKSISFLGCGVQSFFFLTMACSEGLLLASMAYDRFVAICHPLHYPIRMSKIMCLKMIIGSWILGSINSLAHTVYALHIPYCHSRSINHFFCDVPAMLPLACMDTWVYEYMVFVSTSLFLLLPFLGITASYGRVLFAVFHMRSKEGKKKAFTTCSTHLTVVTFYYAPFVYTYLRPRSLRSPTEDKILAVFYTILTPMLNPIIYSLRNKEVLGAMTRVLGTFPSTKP
Method: (§2) Functional dose-response experiments were performed to evaluate the level of DMTS activity of the modified cell line expressing individual putative DMTS receptors. Using a cell-based assay, mouse receptor Olfr1193, Olfr1093, Olfr1097, Olrf166, Olfr169, Olfr738 and Olfr742, and human receptor OR4S2 and OR52N5 were tested in an HEK293T cell line wherein the endogenous RTP1 gene has been activated and the odorant receptor chaperone protein was expressed (described in WO2016/201153). The mouse receptor genes were tagged with a Lucy-FLAG®-Rho tag combination and the human receptors were tagged with a Rho-FLAG® tag combination resulting in a tag:receptor fusion protein for the cell based assay. Receptor genes were co-transfected with the canonical olfactory human G-protein alpha subunit Golf gene and were exposed to increasing concentrations of the malodor odorant. Co-expression of the human Golf activates the Gs transduction pathway that leads to an internal cAMP increase upon binding to the appropriate ligand. Odorant-induced activity was detected by measuring the cAMP increase in the cytosol using an Homogeneous Time Resolved Fluorescence (HTRF) based kit (CisBio, cAMP dynamic 2 kit, cat. 62AM4PEJ). […] The activity levels are reported by the potency of the DMTS induced-response for each receptor as a measure of the EC50 value (the effective concentration at which the receptor responds at its half-maximal activation efficacy level for a given compound).
(§3) Functional dose-response experiments were performed to confirm the DMTS activity on the DMTS receptors identified in Example 2 and to further characterize their response to DMDS. Using the same cell-based assay described in Example 2, mouse receptors Olfr1193, Olfr1093, Olfr1097, Olfr166, Olfr169, Olfr738, Olfr742 and of human odorant receptor OR4S2 were tested with increasing concentration of DMTS, DMDS or butyric acid (control). […] A weak response for OR4S2 and Olfr169 to butyric acid was visible but was too weak to consider butyric acid as a representative ligand for these receptors. The activity levels are reported by the potency of DMTS or DMDS induced-response for each receptor as a measure of the EC50 value, EC50DMTS and EC50DMDS respectively. […] Competitive antagonists at the malodor binding site of these receptors have the potential to reduce the unpleasant perception of both DMTS and DMDS.

mouse receptor Olfr742 = target: T2, mouse receptor Olfr742 (Mus musculus, UniProt A2RTP5); assay: as above; conditions: FIG. 5, Example 5, SEQ ID NO: 14
T2 construct: cAMP HTRF
T2 sequence (A2RTP5 1-311): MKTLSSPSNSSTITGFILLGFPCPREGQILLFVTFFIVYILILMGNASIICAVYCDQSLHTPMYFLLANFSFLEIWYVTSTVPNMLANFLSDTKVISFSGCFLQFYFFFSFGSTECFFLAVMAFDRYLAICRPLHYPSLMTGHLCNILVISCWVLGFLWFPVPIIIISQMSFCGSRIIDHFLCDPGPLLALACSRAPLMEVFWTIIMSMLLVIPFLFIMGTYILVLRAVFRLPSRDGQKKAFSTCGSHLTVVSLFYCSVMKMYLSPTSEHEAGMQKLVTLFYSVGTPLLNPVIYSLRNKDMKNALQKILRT
Method: as §2, §3

mouse receptor Olfr1193 = target: T3, mouse receptor Olfr1193 (Mus musculus, UniProt A2AV13); assay: as above; conditions: FIG. 5, Example 5, SEQ ID NO: 2
T3 construct: cAMP HTRF
T3 sequence (A2AV13 1-318): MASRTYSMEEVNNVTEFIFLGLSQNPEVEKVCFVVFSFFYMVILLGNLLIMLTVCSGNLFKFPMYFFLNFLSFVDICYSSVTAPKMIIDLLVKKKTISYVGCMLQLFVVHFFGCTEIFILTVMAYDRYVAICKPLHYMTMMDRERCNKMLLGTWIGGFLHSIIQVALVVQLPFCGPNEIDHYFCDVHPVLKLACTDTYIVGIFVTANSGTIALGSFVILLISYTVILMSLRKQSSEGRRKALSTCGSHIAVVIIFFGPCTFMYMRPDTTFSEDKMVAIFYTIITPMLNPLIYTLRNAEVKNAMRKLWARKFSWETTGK
Method: as §2, §3

mouse receptor Olfr169 = target: T4, mouse receptor Olfr169 (Mus musculus, UniProt Q7TS53); assay: as above; conditions: FIG. 5, Example 5, SEQ ID NO: 10
T4 construct: cAMP HTRF
T4 sequence (Q7TS53 1-313): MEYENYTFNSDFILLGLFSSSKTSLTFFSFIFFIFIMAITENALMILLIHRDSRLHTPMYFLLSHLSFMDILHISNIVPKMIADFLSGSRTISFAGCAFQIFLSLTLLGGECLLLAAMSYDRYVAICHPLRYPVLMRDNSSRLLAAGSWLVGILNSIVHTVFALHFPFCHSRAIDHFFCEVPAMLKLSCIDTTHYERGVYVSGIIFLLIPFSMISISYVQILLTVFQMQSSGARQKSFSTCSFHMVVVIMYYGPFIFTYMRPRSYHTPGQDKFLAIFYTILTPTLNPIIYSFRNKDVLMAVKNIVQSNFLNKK
Method: as §2, §3

mouse receptor Olfr1097 = target: T5, mouse receptor Olfr1097 (Mus musculus, UniProt Q8VGA2); assay: as above; conditions: FIG. 5, Example 5, SEQ ID NO: 6
T5 construct: cAMP HTRF
T5 sequence (Q8VGA2 1-315): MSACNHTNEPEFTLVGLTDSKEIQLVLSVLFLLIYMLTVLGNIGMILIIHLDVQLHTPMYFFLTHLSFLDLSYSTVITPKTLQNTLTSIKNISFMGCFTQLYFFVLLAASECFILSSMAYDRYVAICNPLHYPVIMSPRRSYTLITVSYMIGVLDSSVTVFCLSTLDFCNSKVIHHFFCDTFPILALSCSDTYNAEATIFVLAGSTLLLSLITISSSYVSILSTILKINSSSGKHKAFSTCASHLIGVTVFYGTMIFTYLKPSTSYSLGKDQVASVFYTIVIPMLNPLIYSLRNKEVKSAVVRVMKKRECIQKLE
Method: as §2, §3

mouse receptor Olfr1093 = target: T6, mouse receptor Olfr1093 (Mus musculus, UniProt B2RR12); assay: as above; conditions: FIG. 5, Example 5, SEQ ID NO: 4
T6 construct: cAMP HTRF
T6 sequence (B2RR12 1-322): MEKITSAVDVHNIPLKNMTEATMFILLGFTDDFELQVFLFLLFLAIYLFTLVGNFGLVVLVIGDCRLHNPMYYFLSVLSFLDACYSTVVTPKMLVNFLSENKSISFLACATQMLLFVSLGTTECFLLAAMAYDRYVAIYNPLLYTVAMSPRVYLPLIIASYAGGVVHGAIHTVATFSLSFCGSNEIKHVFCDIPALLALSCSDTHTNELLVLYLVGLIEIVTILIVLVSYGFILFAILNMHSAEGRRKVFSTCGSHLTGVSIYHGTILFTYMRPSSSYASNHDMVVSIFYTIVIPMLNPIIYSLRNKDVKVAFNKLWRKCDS
Method: as §2, §3

mouse receptor Olfr738 = target: T7, mouse receptor Olfr738 (Mus musculus, UniProt L7N1X7); assay: as above; conditions: FIG. 5, Example 5, SEQ ID NO: 12
T7 construct: cAMP HTRF
T7 sequence (L7N1X7 1-311): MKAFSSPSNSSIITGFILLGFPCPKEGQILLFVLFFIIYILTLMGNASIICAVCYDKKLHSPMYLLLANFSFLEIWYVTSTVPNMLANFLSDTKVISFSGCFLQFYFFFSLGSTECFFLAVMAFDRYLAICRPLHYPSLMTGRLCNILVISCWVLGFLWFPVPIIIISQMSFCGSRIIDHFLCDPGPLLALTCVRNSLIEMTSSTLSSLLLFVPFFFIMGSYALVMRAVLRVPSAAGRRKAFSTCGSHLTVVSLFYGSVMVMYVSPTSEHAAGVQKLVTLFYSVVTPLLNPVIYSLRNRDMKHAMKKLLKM
Method: as §2, §3

[3] = test system: mouse receptor Olfr1193, Olfr1093, Olfr1097, Olrf166, Olfr169, Olfr738 and Olfr742, and human receptor OR4S2 and OR52N5; assay: cAMP HTRF dose-response assay in HEK293T cells expressing odorant receptors (Example 2); type: cell-based; conditions: increasing concentrations of odorant, receptors co-transfected with human Golf
OR4S2 = target: T8, OR4S2 (Homo sapiens, UniProt Q8NH73); assay: cAMP HTRF dose-response assay (Example 5), OR4S2; type: cell-based; parameters: expressed in transfected cells; conditions: increasing concentration
T8 sequence (Q8NH73 1-311): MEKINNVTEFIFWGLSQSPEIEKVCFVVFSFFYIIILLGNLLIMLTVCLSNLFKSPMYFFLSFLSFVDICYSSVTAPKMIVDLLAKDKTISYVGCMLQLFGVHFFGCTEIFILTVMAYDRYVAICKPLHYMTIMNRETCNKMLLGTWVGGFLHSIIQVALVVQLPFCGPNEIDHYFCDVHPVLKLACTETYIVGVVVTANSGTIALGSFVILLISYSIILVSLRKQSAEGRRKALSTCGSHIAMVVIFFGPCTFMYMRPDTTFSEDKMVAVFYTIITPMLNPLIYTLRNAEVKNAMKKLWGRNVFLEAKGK
Method: as §1

Olfr169 = assay: cAMP HTRF dose-response assay (Example 5), Olfr169; type: cell-based, mouse; conditions: increasing concentration
Method: as §1

Row | SMILES | activity upon exposure in mock transfected cells [1] | receptor activity (cAMP increase) [2] | EC50 (mouse receptor Olfr166) [µM] | EC50 (mouse receptor Olfr742) [µM] | EC50 (mouse receptor Olfr1193) [µM] | EC50 (mouse receptor Olfr169) [µM] | EC50 (mouse receptor Olfr1097) [µM] | EC50 (mouse receptor Olfr1093) [µM] | EC50 (mouse receptor Olfr738) [µM] | receptor activity (cAMP increase in the cytosol) [3] | response to butyric acid (cAMP) (OR4S2) | response to butyric acid (cAMP) (Olfr169)
1 | CSSC [DMDS, dimethyl disulfide] | did not show activity | strong dose-dependent increase of the receptor activity | 12 | 69 | 40 | 102 | 87 | 458 | 355 |  |  | 
2 | CCCC(=O)O [butyric acid] |  |  |  |  |  |  |  |  |  | not | weak response | weak response
